Assay [1] relates to Ba/F3 EGFR del19 cell line. The experiment in a line: CellTiter-Glo cell viability, Ba/F3 EGFR del19. It is filed as cell-based. As to conditions: 72 hours. Here is the method:
(§1) The measurement of an activity on wild-type and mutation Ba/F3 EGFR cell line of the compound of the present invention was experimented by utilizing the CellTiter-Glo system sold by Promega, as follow. The CellTiter-Glo assay is a method for measuring the ATP present in cells in cell culture conditions to determine the cell viability.
(§2) The analysis of an EGFR inhibitory ability effect of the compound was carried out in accordance with the analysis reaction recipe below.
(§3) After the reaction of 72 hours, the plate treated with the compound was allowed to stand for 30 minutes at ambient temperature, and then, was further treated with 100 μl of the reagent, and was shaked for 10 minutes at ambient temperature. […] The measurement values measured at the eight concentrations of the compound were analyzed by using the Prism program (version 5.01, Graphpad Software, Inc.), and IC50 value of the compound was calculated, which is an inhibitory ability indicator.
A general note: ATP-based viability assays read luminescence as a measure of living cells.

Assay [2] concerns Ba/F3 EGFR del19/T790M cell line. In words: CellTiter-Glo cell viability, Ba/F3 EGFR del19/T790M. It is filed as cell-based. To be noted: CellTiter-Glo, 72 hours, read-out: Ba/F3 EGFR del19/T790M IC50. As for the experimental part:
as §1, §2
(§4) After the reaction of 72 hours, the plate treated with the compound was allowed to stand for 30 minutes at ambient temperature, and then, was further treated with 100 μl of the reagent, and was shaked for 10 minutes at ambient temperature.

Assay [3] deals with Ba/F3 EGFR del19/T790M/C797S cell line. In words: CellTiter-Glo cell viability, Ba/F3 EGFR del19/T790M/C797S. It is filed as cell-based. As to conditions: CellTiter-Glo, 72 hours, read-out: Ba/F3 EGFR del19/T790M/C797S IC50. Here is the method:
as §1, §2, §4

In the next assay the target is EGFR del19/T790M (Homo sapiens (Human), UniProt P00533, DEL746-750/T790M). In words: HTRF enzyme assay, EGFR del19/T790M. It is filed as biochemical. To be noted: recombinant enzyme. As for the experimental part:
(§5) The measurement of an activity on wild-type and EGFR mutation enzyme of the compound of the present invention was experimented by utilizing the HTRF system sold by Cisbio, as follow.
(§6) The composition of the assay buffer used in the activity measurement was 50 mM Tris-HCl pH 7.5, 100 mM NaCl, 7.5 mM MgCl2, 3 mM KCl, 0.01% Tween 20, 0.1% BSA, 1 mM DTT. The enzymatic reaction was carried out hereto by using the peptide substrate labeled with ATP of […] concentration and biotin of […] concentration. The analysis of an EGFR activity inhibitory effect of the compound was carried out in accordance with the analysis reaction recipe below.
(§7) Component 1: […] of EGFR wild-type or mutation enzyme
(§8) Component 2: […] of compound solution
(§9) Component 3: […] of peptide labeled with ATP and biotin
(§10) The enzymatic reaction was initiated by mixing Component 1 and Component 2 first, and then, adding component 3. After the reaction for 2 hours at 37° C., […] of a measurement solution consisting of streptavidin-XL665 provided by Cisbio and anti-phosphotyrosine antibody labeled with europium was added to the enzymatic reaction solution and reacted for 1 hour at ambient temperature. […] The measurement values measured at the seven concentrations of the compound were analyzed by using the Prism program (version 5.01, Graphpad Software, Inc.), and IC50 value of the compound was calculated, which is an inhibitory ability indicator.

A further assay addresses EGFR del19/T790M/C797S (Homo sapiens, UniProt P00533, C797S/DEL746-750/T790M). In words: HTRF enzyme assay, EGFR del19/T790M/C797S. It is filed as biochemical. To be noted: HTRF, recombinant enzyme; read-out: EGFR del19/T790M/C797S IC50. Here is the method:
as §5, §6, §7, §8, §9, §10
(TR-FRET usually uses a lanthanide donor and a delayed reading to cut background.)

In the next assay the test system is Ba/F3 EGFR wt. cell line. In words: CellTiter-Glo cell viability, Ba/F3 EGFR wild-type. It is filed as cell-based. To be noted: 72 hours. As for the experimental part:
as §1, §2, §3

The next assay concerns the target EGFR del19 (Homo sapiens (Human), UniProt P00533, DEL746-750). In words: HTRF enzyme assay, EGFR del19. It is filed as biochemical. As to conditions: recombinant enzyme. As for the experimental part:
as §5, §6, §7, §8, §9, §10

For another assay, the target named is EGFR wt. (Homo sapiens (Human), UniProt P00533). In words: HTRF enzyme assay, wild-type EGFR. It is filed as biochemical. To be noted: recombinant enzyme. As for the experimental part:
as §5, §6, §7, §8, §9, §10

SMILES strings stand for the structures. pIC50: −log10 of the molar value. Bounds are passed on as bounds.

This is an account of results in patent US11253516B2, “N2,N4-diphenylpyrimidine-2,4-diamine derivative, method for preparing same, and pharmaceutical composition containing same as active ingredient for prevention or treatment of cancer” (Korea Research Institute of Chemical Technology, priority 2017, dated 2022).

Chain of EGFR wt. (P00533 25-1210): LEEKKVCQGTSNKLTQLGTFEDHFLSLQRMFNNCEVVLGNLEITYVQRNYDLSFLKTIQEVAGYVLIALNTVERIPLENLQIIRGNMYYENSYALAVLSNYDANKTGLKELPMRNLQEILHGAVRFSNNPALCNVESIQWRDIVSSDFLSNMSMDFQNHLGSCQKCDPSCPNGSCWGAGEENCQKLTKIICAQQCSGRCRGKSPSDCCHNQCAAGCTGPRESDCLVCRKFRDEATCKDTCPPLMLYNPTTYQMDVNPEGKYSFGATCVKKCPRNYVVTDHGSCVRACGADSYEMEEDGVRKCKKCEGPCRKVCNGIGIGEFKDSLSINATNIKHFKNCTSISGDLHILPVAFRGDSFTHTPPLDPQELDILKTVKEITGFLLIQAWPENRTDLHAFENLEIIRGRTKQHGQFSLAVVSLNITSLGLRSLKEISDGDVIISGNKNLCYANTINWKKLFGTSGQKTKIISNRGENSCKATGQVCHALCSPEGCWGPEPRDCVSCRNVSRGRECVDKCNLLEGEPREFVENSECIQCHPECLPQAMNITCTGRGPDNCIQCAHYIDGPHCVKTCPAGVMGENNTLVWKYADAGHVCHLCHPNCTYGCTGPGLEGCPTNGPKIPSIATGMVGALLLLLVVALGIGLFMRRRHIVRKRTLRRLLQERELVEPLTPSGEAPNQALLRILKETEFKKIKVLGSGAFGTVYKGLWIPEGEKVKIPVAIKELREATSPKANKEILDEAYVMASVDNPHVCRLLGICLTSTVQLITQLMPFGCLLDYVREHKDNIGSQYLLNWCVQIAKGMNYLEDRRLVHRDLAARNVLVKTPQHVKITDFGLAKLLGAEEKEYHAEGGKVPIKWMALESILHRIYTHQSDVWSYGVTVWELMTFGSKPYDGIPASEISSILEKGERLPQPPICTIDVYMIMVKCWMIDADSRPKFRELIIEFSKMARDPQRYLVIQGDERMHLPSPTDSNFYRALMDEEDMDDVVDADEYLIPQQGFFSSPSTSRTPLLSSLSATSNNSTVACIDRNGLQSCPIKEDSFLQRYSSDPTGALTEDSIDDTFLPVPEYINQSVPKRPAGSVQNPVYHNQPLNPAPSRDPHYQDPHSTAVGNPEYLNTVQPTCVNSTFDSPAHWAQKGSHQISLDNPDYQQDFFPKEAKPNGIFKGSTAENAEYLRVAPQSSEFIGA
Chain of EGFR del19/T790M (P00533 other isoform, or with tags, fused parts or gaps T790M/del 1-668/del 746-750 limits assumed): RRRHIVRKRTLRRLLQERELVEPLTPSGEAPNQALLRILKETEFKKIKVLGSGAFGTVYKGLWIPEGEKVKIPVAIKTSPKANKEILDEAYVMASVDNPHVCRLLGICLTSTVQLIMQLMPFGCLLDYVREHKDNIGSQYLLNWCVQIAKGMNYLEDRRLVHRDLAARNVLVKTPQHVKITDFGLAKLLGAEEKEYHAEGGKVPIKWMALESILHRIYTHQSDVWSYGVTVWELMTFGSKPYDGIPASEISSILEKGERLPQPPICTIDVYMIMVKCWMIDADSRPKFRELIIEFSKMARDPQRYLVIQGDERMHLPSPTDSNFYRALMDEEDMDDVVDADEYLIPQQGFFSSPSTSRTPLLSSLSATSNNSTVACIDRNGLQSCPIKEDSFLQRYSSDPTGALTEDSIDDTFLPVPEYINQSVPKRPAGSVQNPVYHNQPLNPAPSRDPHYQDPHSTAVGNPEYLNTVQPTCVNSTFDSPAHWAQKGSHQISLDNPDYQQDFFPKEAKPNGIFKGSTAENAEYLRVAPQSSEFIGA
Chain of EGFR del19 (P00533 other isoform, or with tags, fused parts or gaps del 1-668/del 746-750 limits assumed): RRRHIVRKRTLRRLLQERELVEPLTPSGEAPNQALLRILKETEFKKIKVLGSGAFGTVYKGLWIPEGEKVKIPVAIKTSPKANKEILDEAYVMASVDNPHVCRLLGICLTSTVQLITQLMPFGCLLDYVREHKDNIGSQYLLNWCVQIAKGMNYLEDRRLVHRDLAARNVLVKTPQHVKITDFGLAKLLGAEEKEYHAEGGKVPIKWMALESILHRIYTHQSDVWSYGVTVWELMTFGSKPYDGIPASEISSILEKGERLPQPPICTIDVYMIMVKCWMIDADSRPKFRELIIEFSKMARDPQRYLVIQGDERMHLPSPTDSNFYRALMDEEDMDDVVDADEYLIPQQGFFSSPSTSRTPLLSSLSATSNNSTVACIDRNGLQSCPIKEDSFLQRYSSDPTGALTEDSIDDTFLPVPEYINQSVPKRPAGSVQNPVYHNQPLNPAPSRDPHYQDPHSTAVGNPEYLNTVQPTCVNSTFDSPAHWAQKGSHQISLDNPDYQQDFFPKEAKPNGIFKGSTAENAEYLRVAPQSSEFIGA
Chain of EGFR del19/T790M/C797S (P00533 with tags, fused parts or gaps C797S/DEL746-750/T790M limits assumed): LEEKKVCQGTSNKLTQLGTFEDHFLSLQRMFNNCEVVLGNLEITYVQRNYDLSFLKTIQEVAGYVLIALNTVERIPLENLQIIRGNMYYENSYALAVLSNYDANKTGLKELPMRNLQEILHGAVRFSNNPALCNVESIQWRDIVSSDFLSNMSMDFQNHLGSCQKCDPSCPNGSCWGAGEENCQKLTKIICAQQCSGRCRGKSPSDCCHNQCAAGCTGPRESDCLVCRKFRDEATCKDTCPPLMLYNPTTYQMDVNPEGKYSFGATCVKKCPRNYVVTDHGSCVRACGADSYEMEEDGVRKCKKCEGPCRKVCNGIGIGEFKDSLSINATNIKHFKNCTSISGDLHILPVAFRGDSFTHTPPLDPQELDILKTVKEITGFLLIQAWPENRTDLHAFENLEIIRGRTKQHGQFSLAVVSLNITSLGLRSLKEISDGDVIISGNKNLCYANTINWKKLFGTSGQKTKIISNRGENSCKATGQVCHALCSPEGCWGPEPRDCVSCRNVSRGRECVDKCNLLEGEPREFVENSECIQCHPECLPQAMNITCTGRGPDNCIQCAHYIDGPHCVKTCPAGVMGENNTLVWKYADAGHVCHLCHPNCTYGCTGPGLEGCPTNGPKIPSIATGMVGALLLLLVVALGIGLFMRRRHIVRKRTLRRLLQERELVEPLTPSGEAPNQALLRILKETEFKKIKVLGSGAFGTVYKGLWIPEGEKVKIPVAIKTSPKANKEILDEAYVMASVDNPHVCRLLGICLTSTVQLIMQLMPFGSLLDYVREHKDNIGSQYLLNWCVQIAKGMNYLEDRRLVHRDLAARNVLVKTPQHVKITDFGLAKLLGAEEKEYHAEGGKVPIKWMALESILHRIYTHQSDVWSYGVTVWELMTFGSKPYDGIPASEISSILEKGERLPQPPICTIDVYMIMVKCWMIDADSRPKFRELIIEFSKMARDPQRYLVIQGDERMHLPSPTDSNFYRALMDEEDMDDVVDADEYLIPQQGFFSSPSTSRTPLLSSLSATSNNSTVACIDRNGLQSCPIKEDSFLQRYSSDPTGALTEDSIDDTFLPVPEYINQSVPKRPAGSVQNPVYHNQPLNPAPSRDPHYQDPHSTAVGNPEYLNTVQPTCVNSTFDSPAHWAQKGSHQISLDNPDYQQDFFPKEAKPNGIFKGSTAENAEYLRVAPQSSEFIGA

As to `COc1cc(C2CCNCC2)ccc1Nc1ncc(Br)c(Nc2ccccc2NS(N)(=O)=O)n1` [Example 7, 4-(4-((5-bromo-4-((2-(sulfamoylamino)phenyl)amino)pyrimidin-2-yl)amino)-3-methoxyphenyl)piperidine], the pIC50 in assay [1] is 6.33; in assay [2], 5.80; in assay [3], 5.48; at EGFR del19/T790M, 7.42; on EGFR del19/T790M/C797S, 8.70; with Ba/F3 EGFR wt. cell line it was 5.47. In addition, the pIC50 is 7.10 at EGFR del19 and below 5.00 on EGFR wt..
In the case of `COc1cc(N2CCNCC2)ccc1Nc1ncc(Br)c(Nc2ccccc2NS(N)(=O)=O)n1` [Example 30, 4-(4-((5-bromo-4-((2-(sulfamoylamino)phenyl)amino)pyrimidin-2-yl)amino)-3-methoxyphenyl)piperazine], the pIC50 in assay [1] is 6.17; in assay [2], 6.07; in assay [3] it was 5.57; on EGFR del19/T790M it was 7.47; at EGFR del19/T790M/C797S, 8.52; in the assay with Ba/F3 EGFR wt. cell line it was 5.27. In addition, the pIC50 on EGFR del19 is 7.62; at EGFR wt. it was 5.74.
